Reference: patent US5686424A, “2-oxoethyl derivatives as immunosuppressants” (Miles Inc., priority 1995, dated 1997)
Structures can show the parent of a compound that is named as a salt.

Columns and labels:
FKBP = FKBP (Homo sapiens, UniProt P62942); test: PPIase Inhibition Assay; assay type: biochemical; conditions: concentration of inhibitor required for 50% inhibition of enzyme activity; FKBP, substrate Succinyl-Ala-Phe-Pro-Phe-para-nitroanilide; TABLE I
Method in brief: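 Chymotrypsin-coupled isomerization of Succinyl-Ala-Phe-Pro-Phe-para-nitroanilide by FKBP in ice-cold 25 mM HEPES pH 7.8, 100 mM NaCl, compound in DMSO. A390 followed 90 sec; first-order rate constants give % activity remaining after subtracting uncatalyzed rate; IC50 by linear regression of V-/V+ versus concentration.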

human T-cells = test: Suppression of Human T-Cell Proliferation Assay (PHA-stimulated, [3H]-thymidine incorporation); assay type: cell-based; conditions: concentration inhibiting [3H]-thymidine incorporation of PHA-stimulated T-cells by 50%, 72 hours; TABLE 2; read-out: IC50
Method in brief: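 SRBC-rosette-purified human peripheral T-cells stimulated with PHA-M (40 μg/ml stock) and compound dilutions, in duplicate, for 72 h at 37° C. Proliferation measured by [3H]-thymidine incorporation during the final 6 h, read by liquid scintillation counting.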

NF-AT = NF-AT Inhibition Assay Directed β-Galactosidase Expression in FGL-5 cells; assay type: cell-based; conditions: 50% inhibition of NF-AT directed β-galactosidase activity in FGL-5 cells stimulated with phorbol dibutyrate and ionomycin; TABLE 3
Method in brief: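 FGL-5 Jurkat cells (3 million cells/ml) carry NF-AT-site-driven lacZ. They were stimulated with phorbol dibutyrate plus ionomycin and incubated with compound 16-18 h at 37 °C, in duplicate wells with matched ethanol or DMSO vehicle controls. β-Galactosidase was read as fluorescence from 4-methylumbelliferyl-β-D-galactoside cleavage, giving percent inhibition.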

FKBP, sequence (P62942 whole entry): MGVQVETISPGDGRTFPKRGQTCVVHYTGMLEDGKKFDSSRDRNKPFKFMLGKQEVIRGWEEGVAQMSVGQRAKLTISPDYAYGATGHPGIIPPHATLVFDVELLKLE

Row | Structure (SMILES) | IC50 (FKBP) | IC50 (NF-AT) | IC50 (human T-cells)
1 | COc1cc(C(=O)CN2CCC[C@H]2C(=O)NCCc2ccccn2)cc(OC)c1OC [Example 124, L-Proline, 1-[2-(3,4,5-Trimethoxyphenyl)-2-Oxoethyl] 2-(Pyrid-2-yl)ethylamide Dihydrochloride] | > 5 µM | > 15 µM | > 15 µM
2 | C=CCOC(=O)Nc1ccc(CCCOC(=O)[C@@H]2CCCN2CC(=O)c2cc(OC)c(OC)c(OC)c2)cc1 [Example 126, L-Proline, 1-[2-(3,4,5-Trimethoxyphenyl)-2-Oxoethyl] 3-(4-[N-Carboallyloxy]aminophenyl)propyl Ester Hydrochloride] | > 5 µM | > 15 µM | 10 µM
3 | COc1cc(C(=O)CN2CCC[C@H]2C(=O)NCC2CCCO2)cc(OC)c1OC (stereo partly drawn) [Example 128, L-Proline, 1-[2-(3,4,5-Trimethoxyphenyl)-2-Oxoethyl] Tetrahydrofurfurylamide] | > 5 µM | > 15 µM | 4 µM
4 | COc1cc(C(=O)CN2CCC[C@H]2C(=O)NCCc2ccc(S(N)(=O)=O)cc2)cc(OC)c1OC [Example 130, L-Proline, 1-[2-(3,4,5-Trimethoxyphenyl)-2-Oxoethyl] 2-(4-Sulfamoylphenyl)ethylamide] | > 5 µM | > 15 µM | 4 µM
5 | COc1cc(C(=O)CN2CCC[C@H]2C(=O)N2CCC(c3ccccc3)CC2)cc(OC)c1OC [Example 131, L-Proline, 1-[2-(3,4,5-Trimethoxyphenyl)-2-Oxoethyl] 4-Phenylpiperldenylamide] | > 5 µM | > 33 µM | 22 µM
6 | COc1cc(C(=O)CN2CCC[C@H]2C(=O)N(C)CCc2ccccc2)cc(OC)c1OC [Example 135, L-Proline, 1-[2-(3,4,5-Trimethoxyphenyl)-2-Oxoethyl] N-MethylphenethylamideHydrochloride] | > 5 µM | > 33 µM | 14 µM

Now from value to compound, other results behind:

Row | IC50 (FKBP) | IC50 (NF-AT) | Structure (SMILES) | IC50 (human T-cells)
7 | > 5 µM | > 15 µM | COc1cc(C(=O)CN2CCC[C@H]2C(=O)NCCCCc2ccccc2)cc(OC)c1OC [Example 123, L-Proline, 1-[2-(3,4,5-Trimethoxyphenyl)-2-Oxoethyl] 4-Phenylbutylamide Hydrochloride] | 10 µM
8 | > 5 µM | > 15 µM | COc1cc(C(=O)CN2CCC[C@H]2C(=O)NCCc2ccc(N)cc2)cc(OC)c1OC [Example 125, L-Proline, 1-[2-(3,4,5-Trimethoxyphenyl)-2-Oxoethyl] 2-(4-aminophenyl)ethylamide Dihydrochloride] | > 15 µM
9 | > 5 µM | > 15 µM | COc1cc(C(=O)CN2CCC[C@H]2C(=O)NCC(=O)c2ccccc2)cc(OC)c1OC [Example 127, L-Proline, 1-[2-(3,4,5-Trimethoxyphenyl)-2-Oxoethyl] 2-Phenyl-2-oxoethylamide] | > 15 µM
10 | > 5 µM | > 15 µM | COc1cc(C(=O)CN2CCC[C@H]2C(=O)NCc2cccc3ccccc23)cc(OC)c1OC [Example 129, L-Proline, 1-[2-(3,4,5-Trimethoxyphenyl)-2-Oxoethyl] Naphthalen-1-ylmethylamide] | 10 µM
11 | > 5 µM | > 33 µM | COc1ccc(CNC(=O)[C@@H]2CCCN2CC(=O)c2cc(OC)c(OC)c(OC)c2)cc1 [Example 132, L-Proline, 1-[2-(3,4,5-Trimethoxyphenyl)-2-Oxoethyl] 4-Methoxybenzamide Hydrochloride] | 24 µM
12 | > 5 µM | > 33 µM | COc1cccc(CNC(=O)[C@@H]2CCCN2CC(=O)c2cc(OC)c(OC)c(OC)c2)c1 [Example 133, L-Proline, 1-[2-(3,4,5-Trimethoxyphenyl)-2-Oxoethyl] 3-Methoxybenzamide Hydrochloride] | 22 µM
13 | > 5 µM | > 33 µM | COc1ccccc1CNC(=O)[C@@H]1CCCN1CC(=O)c1cc(OC)c(OC)c(OC)c1 [Example 134, L-Proline, 1-[2-(3,4,5-Trimethoxyphenyl)-2-Oxoethyl] 2-Methoxybenzamide Hydrochloride] | 19 µM
